# Assay results taken from PubChem BioAssay (NCI).
#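 Briefly, cells in 96-well plates were exposed to five compound concentrations for 48 h, and endpoints were estimated by linear interpolation. TGI is the concentration that stops growth completely.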
# Experiments:
# Assay in all cases: inhibition of tumour cell growth, NCI panel, 48 h
# [1] = tested on: 786-0 renal
# [2] = tested on: A498 renal
# [3] = tested on: A549 NSCLC
# [4] = tested on: ACHN renal
# [5] = tested on: BT-549 breast
# [6] = tested on: CAKI-1 renal
# [7] = tested on: CCRF-CEM leukemia
# [8] = tested on: COLO 205 colon
# [9] = tested on: DU-145 prostate
# [10] = tested on: EKVX NSCLC
# [11] = tested on: HCC-2998 colon
# [12] = tested on: HCT-116 colon
# [13] = tested on: HCT-15 colon
# [14] = tested on: HL-60(TB) leukemia
# [15] = tested on: HOP-62 NSCLC
# [16] = tested on: HOP-92 NSCLC
# [17] = tested on: HS 578T breast
# [18] = tested on: HT29 colon
# [19] = tested on: K-562 leukemia
# [20] = tested on: KM12 colon
# [21] = tested on: LOX IMVI melanoma
# [22] = tested on: M14 melanoma
# [23] = tested on: MCF7 breast
# [24] = tested on: MDA-MB-231 breast
# [25] = tested on: MDA-MB-435
# [26] = tested on: MDA-N
# [27] = tested on: MOLT-4 leukemia
# [28] = tested on: NCI-H226 lung
# [29] = tested on: NCI-H23 lung
# [30] = tested on: NCI-H460 lung
# [31] = tested on: NCI-H522 lung
# [32] = tested on: NCI/ADR-RES ovarian
# [33] = tested on: OVCAR-3 ovarian
# [34] = tested on: OVCAR-4 ovarian
# [35] = tested on: OVCAR-5 ovarian
# [36] = tested on: OVCAR-8 ovarian
# [37] = tested on: PC-3 prostate
# [38] = tested on: RPMI-8226 leukemia
# [39] = tested on: RXF 393 renal
# [40] = tested on: SF-268 CNS
# [41] = tested on: SF-295 CNS
# [42] = tested on: SF-539 CNS
# [43] = tested on: SK-MEL-2 melanoma
# [44] = tested on: SK-MEL-28 melanoma
# [45] = tested on: SK-MEL-5 melanoma
# [46] = tested on: SK-OV-3 ovarian
# [47] = tested on: SN12C renal
# [48] = tested on: SNB-75 CNS
# [49] = tested on: SR leukemia
# [50] = tested on: SW-620 colon
# [51] = tested on: T-47D breast
# [52] = tested on: TK-10 renal
# [53] = tested on: U251 CNS
# [54] = tested on: UACC-257 melanoma
# [55] = tested on: UACC-62 melanoma
# [56] = tested on: UO-31 renal
# [57] = tested on: IGROV1 ovarian
# [58] = tested on: MALME-3M melanoma
# [59] = tested on: SNB-19 CNS
smiles,measurement,setting,value
O=P1(N(CCCl)CCCl)Oc2ccc(Cl)cc2Sc2c(ccc(Cl)c2Cl)O1 (stereo unspecified),TGI,[1],> 100 µM
same,TGI,[2],> 100 µM
same,TGI,[3],77.1 µM
same,TGI,[4],> 100 µM
same,TGI,[5],> 100 µM
same,TGI,[6],> 100 µM
same,TGI,[7],> 100 µM
same,TGI,[8],23 µM
same,TGI,[9],> 100 µM
same,TGI,[10],> 100 µM
same,TGI,[11],> 100 µM
same,TGI,[12],74.6 µM
same,TGI,[13],> 100 µM
same,TGI,[14],> 100 µM
same,TGI,[15],> 100 µM
same,TGI,[16],34.4 µM
same,TGI,[17],33.6 µM
same,TGI,[18],> 100 µM
same,TGI,[19],> 100 µM
same,TGI,[20],> 100 µM
same,TGI,[21],> 100 µM
same,TGI,[22],> 100 µM
same,TGI,[23],> 100 µM
same,TGI,[24],> 100 µM
same,TGI,[25],> 100 µM
same,TGI,[26],> 100 µM
same,TGI,[27],> 100 µM
same,TGI,[28],95 µM
same,TGI,[29],> 100 µM
same,TGI,[30],33.7 µM
same,TGI,[31],> 100 µM
same,TGI,[32],> 100 µM
same,TGI,[33],> 100 µM
same,TGI,[34],> 100 µM
same,TGI,[35],> 100 µM
same,TGI,[36],> 100 µM
same,TGI,[37],> 100 µM
same,TGI,[38],> 100 µM
same,TGI,[39],43.9 µM
same,TGI,[40],> 100 µM
same,TGI,[41],> 100 µM
same,TGI,[42],> 100 µM
same,TGI,[43],80.3 µM
same,TGI,[44],> 100 µM
same,TGI,[45],21.5 µM
same,TGI,[46],> 100 µM
same,TGI,[47],> 100 µM
same,TGI,[48],67.3 µM
same,TGI,[49],> 100 µM
same,TGI,[50],> 100 µM
same,TGI,[51],> 100 µM
same,TGI,[52],> 100 µM
same,TGI,[53],> 100 µM
same,TGI,[54],> 100 µM
same,TGI,[55],> 100 µM
same,TGI,[56],> 100 µM
CC1(C)COP(=S)(c2ccccn2)O[C@@H]1c1ccccc1 (stereo partly specified),TGI,[1],> 100 µM
same,TGI,[2],> 100 µM
same,TGI,[3],> 100 µM
same,TGI,[4],> 100 µM
same,TGI,[5],> 100 µM
same,TGI,[6],> 100 µM
same,TGI,[7],> 100 µM
same,TGI,[8],> 100 µM
same,TGI,[9],> 100 µM
same,TGI,[10],> 100 µM
same,TGI,[11],> 100 µM
same,TGI,[12],> 100 µM
same,TGI,[13],> 100 µM
same,TGI,[14],> 100 µM
same,TGI,[15],> 100 µM
same,TGI,[16],> 100 µM
same,TGI,[17],> 100 µM
same,TGI,[18],> 100 µM
same,TGI,[57],> 100 µM
same,TGI,[19],> 100 µM
same,TGI,[20],> 100 µM
same,TGI,[21],> 100 µM
same,TGI,[22],> 100 µM
same,TGI,[58],> 100 µM
same,TGI,[23],> 100 µM
same,TGI,[24],> 100 µM
same,TGI,[25],> 100 µM
same,TGI,[26],> 100 µM
same,TGI,[27],> 100 µM
same,TGI,[28],> 100 µM
same,TGI,[29],> 100 µM
same,TGI,[30],> 100 µM
same,TGI,[31],> 100 µM
same,TGI,[32],> 100 µM
same,TGI,[34],> 100 µM
same,TGI,[35],> 100 µM
same,TGI,[36],> 100 µM
same,TGI,[37],> 100 µM
same,TGI,[39],> 100 µM
same,TGI,[40],> 100 µM
same,TGI,[41],> 100 µM
same,TGI,[44],> 100 µM
same,TGI,[45],91.1 µM
same,TGI,[46],> 100 µM
same,TGI,[47],> 100 µM
same,TGI,[59],> 100 µM
same,TGI,[48],> 100 µM
same,TGI,[49],> 100 µM
same,TGI,[50],> 100 µM
same,TGI,[51],> 100 µM
same,TGI,[52],> 100 µM
same,TGI,[53],> 100 µM
same,TGI,[54],> 100 µM
same,TGI,[55],> 100 µM
same,TGI,[56],> 100 µM
